The source of these data is patent US20200179341A1, “METHODS AND COMPOSITIONS FOR TREATING MULTIPLE MYELOMA AND INCREASING ANTIBODY DEPENDENT CELL CYTOTOXICITY BY TARGETING THE ARYL HYDROCARBON RECEPTOR” (priority 2016, published 2020).

The test system of series [1] is NK cell precursors. The following applies: Roeven Blood 2014; cited from earlier work.
A further series has as its system MM cells. The series can be described thus: Surface expression (MFI) of MM antigens targetable by therapeutic monoclonal antibodies after AHR inhibition. The format is cell-based. As to the method: AHR antagonism enhances MM expression of antigens targetable by therapeutic monoclonal antibodies. […] Accordingly, NK-cell mediated killing of MM tumor cells is tested by combining AHR antagonism of effector cells and MM targets with therapeutic monoclonal antibodies.

Series [2] concerns NK cell precursors. The series can be described thus: NK cell development and function from AHR-expressing innate lymphoid cell precursors. The format is cell-based. The following applies: compared to control and AHR agonist (FICZ) treated cells; FIG. 2.
Another series relates to MM cell targets. The series can be described thus: Antibody-mediated ADCC with AHR antagonism (cytotoxicity co-culture). In kind it is cell-based. As to the method: A series of in vitro studies are conducted in which immune effector cells and/or MM cell targets are pre-treated with vehicle or CH233191 prior to cytotoxicity co-culture assay. Accounting for the baseline, direct effect of AHR antagonism on MM cell viability, any additive rate of target cell death in the combinatorial condition can be studied, in particular when both effectors and targets are pre-exposed to CH233191. Using validated techniques (Benson Blood 2010), the effects of CH233191 on immune effector cell expansion, expression of activating receptors, and abilities to traffic to, acquire, and lyse MM targets is studied. These experiments are conducted in the presence of therapeutic monoclonal antibodies in order to assess whether AHR antagonism may enhance ADCC-mediated immunotherapy (e.g., Elotuzumab, Daratumumab/Isatuximab/Rituximab/Milatuzumab).

Another series deals with MM tumor cell burden. The series can be described thus: CH233191 by oral gavage in a disseminated murine MM model.

In the case of `CC(C)n1cnc2c(NCCc3ccc(O)cc3)nc(-c3csc4ccccc34)nc21` [Stemreginin 1], the “acquisition of NK cell function (corroboration)” value in the series with NK cell precursors [1] is recorded as “corroborated this finding”.
As for `Cc1ccccc1N=Nc1ccc(NC(=O)c2ccnn2C)c(C)c1` [CH233191], the “MFI (CH233191), CD20” value in the series on MM cells (surface antigen CD20, antibody Rituximab, DMSO control MFI 321) turned out to be 753. The “MFI (CH233191), CD38” value with MM cells (surface antigen CD38, antibodies Daratumumab, Isatuximab, DMSO control MFI 2959) was 6110. Besides, in the series with MM cells (surface antigen CD74, antibody Milatuzumab, DMSO control MFI 761), the “MFI (CH233191), CD74” value turned out to be 1367. In addition, the “MFI (CH233191), SLAMF7 (CS1)” value with MM cells (surface antigen SLAMF7 (CS1), antibody Elotuzumab, DMSO control MFI 1946) was 2999. Further, in the series with NK cell precursors [2], the “acquisition of cytokine production and cytotoxicity capabilities” value is listed as “rapid acquisition of cytokine production as well as cytotoxicity capabilities”. Further, the “Elotuzumab-mediated ADCC” value in the series on MM cell targets (FIG. 9, with Elotuzumab) is listed as “appears to enhance”. Moreover, in the series with MM cell targets (FIG. 10, with Daratumumab), the “Daratumumab-mediated ADCC” value is recorded as “appears to enhance”. Also, the oral bioavailability result with MM tumor cell burden (difficulties with solubilization in corn oil for gavage) is recorded as “questionable”. In addition, the “apparent reduction in MM tumor cell burden” value in the series with MM tumor cell burden (oral gavage in corn oil, versus vehicle-treated controls) was 2 of 5. The survival outcome in the series with MM tumor cell burden (oral gavage, disseminated murine MM model) was “all mice died of progressive MM”.
